Measured values published in patent US20230321063A1, “COMPOSITIONS AND METHODS TO REDUCE NEUROINFLAMMATION” (Seattle Children's Hospital d/b/a Seattle Children's …, priority 2020, published 2023).

Tests used:
[1] = tested on: non-lesion CNS tissue in Ndufs4(KO) mice; test: Brain immunological staining: microglia and astrocytes in cortex and brainstem outside of overt lesions; format: in vivo, mouse; conditions: 300 mg/kg/day
Experimental: Brain immunological staining and microscopy. Brains were fixed for 48 hours in 10% formalin at 4° C. Following fixation, brains were moved to a cryoprotectant solution (30% sucrose, 1% DMSO, 100 μM glycine, 1×PBS, 0.45 μm filtered, pH 7.5), and stored for over 48 hours, until the fixed tissues sank to the bottom. Tissues were then placed in OCT media (Tissue-Tek OCT compound, Sakura 0004348-01), frozen in cryoblock holders on dry ice, and stored at −80° C. until sectioned for staining. Cryoblocks were cut at 50 μm thickness using a Leica CM30505 cryostat set at −40° C. Slices were moved to 1×PBS and stored at 4° C. until used for staining. Prior to staining, slices were mounted on slides and briefly dried to adhere.
Antibody staining was performed as follows: slides were first incubated in an antigen retrieval and permeabilization buffer (0.05% Triton X-100, 50 μM digitonin, 10 mM Tris-HCl, 1 mM EDTA, pH 9.0) at 60° C. overnight in a white-light LED illuminated box (to promote photobleaching of tissue autofluorescence). To reduce formaldehyde induced background fluorescence, slides were treated with sodium borohydride in ice cold PBS, added at 1 mg/mL immediately before incubation, on ice for 30 min, then moved to 10 mM glycine 1×PBS, pH 7.4, for 5 min at room temperature. Lipid background fluorescence was then blocked by incubating slides in 0.2 μm filtered Sudan Black B solution (5 mg/mL in 70% ethanol) overnight at room temperature. Slides were then rinsed twice, 5 min each, in 1×PBS. Excess fluid was wiped from the slide, and the tissue was circled using Liquid Blocker PAP pen (Fisher Scientific, NC9827128) to hold staining solutions. Slides were blocked for 15 min at room temperature in 1×PBS with 10% rabbit serum (Gibco, 16120-099) then stained overnight at 4° C. in a mixture of rabbit anti-IBA1-fluorochrome 635 conjugated (WAKO 013-26471) at 1:300, mouse anti-GFAP, Alexa555 conjugated (Cell Signaling, 3656S) at 1:300, and DAPI (Sigma, D9542) at 1 μg/mL. […]

[2] = tested on: microglia in mixed neonatal brain-cell cultures; test: Fraction of microglia in mixed primary brain cultures (Iba1 staining); format: cell-based, mouse
Experimental: Mixed brain cell culturing and staining. Briefly, using sterile technique, brains were removed from neonatal pups into ice-cold HBSS (Gibco cat. #14025076). Brains were washed three times in cold PBS. After the third wash, brains were minced using surgical scissors into small, fine pieces. The minced brain was centrifuged at 100 g for 5 min. Once pelleted, PBS was removed and 0.05% trypsin/EDTA (Gibco) was added. The tissue in trypsin/EDTA was then incubated at 37° C. with gentle shaking for 15-30 min, with intermittent mixing and supplemental mincing, until the solution was homogenous and without tissue segments. After incubation, the minced tissue was placed back into the centrifuge at 100 g 5 min. Pellet was washed 3× with cold PBS before adding fresh media to each tube. The tissue was further dissociated using 1000 μL pipet until the solution became cloudy. The sample was washed through a sterile 70-micron cell strainer (Corning) into a 50 mL falcon tube, then plated onto T75 poly-d-lysine coated Nunclon flasks (Nunc EasyFlask132704) at a ratio of one brain to two flasks. After 24 hours, dead cell/debris were washed and media replaced. Cells were then grown for 1 additional day, split onto multi-well plates with poly-d-lysine coated coverslips (Cellware 12 mm round coverslips) at 25% confluence with ABI-009 or pexidartinib (for dose-response) added. […]

[3] = tested on: Ndufs4(KO) mice; test: Isoflurane induced hyperlactemia assay; format: in vivo, mouse; conditions: 0.4% isoflurane for 30 min, P50, 300 mg/kg/d
Experimental: Isoflurane induced hyperlactemia assays. All of these experiments were performed at P50. Mice were subject to normal daily monitoring (see survival studies) up until P50. At P50, baseline blood glucose, lactate, and […] (β-HB) levels were measured using point-of-care meters using the tail-prick method, as described. Mice were then immediately exposed to 0.4% isoflurane or carrier gas only (100% oxygen) for 30 min. At the 30 minutes, blood glucose, lactate, and β-HB were measured again.

[4] = tested on: Ndufs4(KO) mice; test: Body weight, growth and cachexia onset; format: in vivo, mouse
Experimental: Ndufs4(+/−) mice were bred to produce Ndufs4(KO) (Ndufs4(−/−)) offspring. Mice were weaned at 20-21 days of age. Ndufs4(KO) animals were housed with a minimum of one control littermate for warmth and stimulation. Mice were weighed, and health assessed, a minimum of 3 times per week, every other day (daily for IP injected mice, see herein). Where longitudinal blood point-of-care data was collected, this was performed during these health checks. Wetted chow in a dish on the bottom of each cage, and in-cage water bottles, were provided to all cages housing Ndufs4(KO) mice following the onset of disease so that the ability to find or reach food or water was not a limiting factor for survival.
Cachexia in FIG. 4H and FIG. 6E is the day of life when weight peaks prior to the progressive weight loss which occurs in untreated Ndufs4(KO) animals.

## FC(F)(F)c1ccc(CNc2ccc(Cc3c[nH]c4ncc(Cl)cc34)cn2)cn1 [pexidartinib, 5-[(5-chloro-1H-pyrrolo[2,3-b]pyridin-3-yl)methyl]-N-[[6-(trifluoromethyl)pyridin-3-yl]methyl]pyridin-2-amine]
[1]
  astrocyte numbers in non-lesion CNS tissue: rescued to control levels
[1]; beyond that of untreated control animals
  microglia numbers in non-lesion CNS tissue: near complete depletion of microglia
[1]; cortex and brainstem outside overt lesions
  astrocytosis and microgliosis in non-lesion CNS tissue: prevented both forms of gliosis
[2]
  maximum effect on microglia: nearly complete depletion of microglia
[2]; dose-response, fixed on day 7
  fraction of microglia present in mixed neonatal brain-cell cultures: dose-dependently reduced
[3]
  blood lactate spike after isoflurane exposure: fully suppressed this lactate spike
[4]
  cachexia: prevented
